Measured values reported in patent publication US20130029884A1, “BIOCIDE FORMULATIONS” (ENVIROSYSTEMS, INC., priority 2011, published 2013).

Experiments:
[1] = tested on: acid producing bacteria (APB); assay: microbiological kill study in field water (bottle growth test), acid producing bacteria; type: cell-based; conditions: field water from a well in Texas; active biocide 94 to 500 ppm tested
Method: (§1) Microbiological studies were carried out with the formulation of Example 1 and compared to tests with other known biocides. The field water used for testing came from a well in Texas. The biocides were tested at varying concentrations of the active biocide in the field water at active biocide concentrations from 94 parts per million (ppm) to 500 ppm. The biocide of Example 1 was tested along with several known biocides.
(§2) Microbiological kill studies were carried out in field waters considered to be problematic.
(§3) A field water sample was used to dilute the formulation and growth media was added. […] For the SRB concentrations up to 150 ppm PCMX were studied. […] For the APB samples, concentrations of up to 100 ppm PCMX were studied. […] The diluted sample was also tested after the sample had experienced four freeze/thaw cycles and the sample with growth media added was tested with PCMX concentrations up to 100 ppm PCMX.
(§4) For the 42 ppm hydrogen sulfide concentration water, testing was carried out with PCMX concentrations up to 100 ppm. […] For the 24 ppm hydrogen sulfide concentration water, testing was carried out with PCMX concentrations up to 125 ppm.

[2] = tested on: sulfate reducing bacteria (SRB); assay: microbiological kill study in field water (bottle growth test), sulfate reducing bacteria; type: cell-based; conditions: field water from a well in Texas; active biocide 94 to 500 ppm tested
Method: as §1, §2, §3, §4

[3] = cited from earlier work

Q: With “tetrakis hydroxylmethyl phosphonium sulfate [THPS]” as the molecule, how does the “active biocide concentration with complete kill of APB” value (from here on “active biocide concentration … of APB”) [1] read?
A: The value was 150 ppm.

Q: What about the “active biocide concentration with complete kill of SRB” value (from here on “active biocide concentration … of SRB”) [2] of the same molecule?
A: Its value is 150 ppm.

Q: For O=CCCCC=O [glutaraldehyde], which “active biocide concentration … of APB” value [1] is on record?
A: Its value is 250 ppm.

Q: What about the “active biocide concentration … of SRB” value [2] of the same molecule?
A: Its value is 250 ppm.

Q: Which “active biocide concentration … of APB” value [1] does the source give for CN1CSC(=S)N(C)C1 [Dazomet] here?
A: The value was > 270 ppm.

Q: And the hydrolysis half life [3]?
A: Its hydrolysis half life is 3.6 h.

Q: What about the “active biocide concentration … of SRB” value [2] of the same molecule?
A: The value was > 270 ppm.

Q: Which “active biocide concentration … of APB” value [1] does the source give for N#CC(Br)(Br)C(N)=O [DBNPA, dibromocyanoacetamide] here?
A: Its value is 20 ppm.

Q: What about the “active biocide concentration … of SRB” value [2] of the same molecule?
A: Its value is 20 ppm.
